For experiment [1], the target named is His6-ERα298-554 WT (ERα ligand-binding domain) (Homo sapiens (Human), UniProt P03372). As to the kind of experiment: Test A: biochemical antagonist activity, LanthaScreen TR-FRET ERα coactivator assay, WT. The settings on record: protocol with 3 nM estradiol; read-out: Antagonism WT IC50. The essentials:
(§1)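 His6-ERα LBD (0.5 nM) with 0.5 nM Tb-anti-His6 antibody, 250 nM PGC1a peptide and 3 nM (or 10 nM) estradiol in 100 mM potassium phosphate pH 7.4 with 5 mM DTT, incubated overnight at room temperature with compound.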
A general note: TR-FRET usually uses a lanthanide donor and a delayed reading to cut background.

Experiment [2] has as its target His6-ERα298-554 D538G mutant (ERα ligand-binding domain) (Homo sapiens (Human), UniProt P03372, D538G). The experiment can be described thus: Test A: biochemical antagonist activity, LanthaScreen TR-FRET ERα coactivator assay, D538G mutant. The conditions noted are these: protocol with 3 nM estradiol; read-out: Antagonism D538G IC50. The essentials: as §1
Experiment [3] concerns the target His6-ERα298-554 Y537S mutant (ERα ligand-binding domain) (Homo sapiens (Human), UniProt P03372, Y537S). The experiment can be described thus: Test A: biochemical antagonist activity, LanthaScreen TR-FRET ERα coactivator assay, Y537S mutant. The settings on record: protocol with 3 nM estradiol; read-out: Antagonism Y537S IC50. The essentials:
as §1

A further experiment has as its target ERα in MCF7 cells (Homo sapiens (Human), UniProt P03372). The experiment can be described thus: Test C: estrogen receptor degradation activity, ERα in cell western assay in MCF7 cells. The conditions noted are these: for DC50: 4 hours post compound addition, ERα in cell western, read-out: Degradation IC50; for % Degradation at 3 μM: 4 hours, relative to fulvestrant. It counts as cell-based. In outline:
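MCF7 cells in phenol-red-free medium with 5% charcoal-stripped FBS received compound (9-point 1:5, 3-0.000018 μM) for 4 h, then were fixed. ERα immunostained (Alexa 488) and normalised to DNA (Syto-64), read as integrated fluorescence on an Acumen scanner.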

The structures appear in SMILES notation.

A word on the IC50: it is the point on the concentration scale where inhibition reaches its midpoint.

Chain of His6-ERα298-554 D538G mutant (ERα ligand-binding domain) (P03372 298-554 D538G): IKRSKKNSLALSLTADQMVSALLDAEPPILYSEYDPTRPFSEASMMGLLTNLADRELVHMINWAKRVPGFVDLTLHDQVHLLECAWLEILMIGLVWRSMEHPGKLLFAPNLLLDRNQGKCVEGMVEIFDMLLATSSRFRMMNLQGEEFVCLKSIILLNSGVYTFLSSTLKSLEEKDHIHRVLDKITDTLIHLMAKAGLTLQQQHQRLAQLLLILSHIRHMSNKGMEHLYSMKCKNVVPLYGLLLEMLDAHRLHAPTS
Chain of His6-ERα298-554 Y537S mutant (ERα ligand-binding domain) (P03372 298-554 Y537S): as the sequence (P03372 298-554 D538G) above, with Y240S, G241D counted along it
Chain of His6-ERα298-554 WT (ERα ligand-binding domain) (P03372 298-554): as the sequence (P03372 298-554 D538G) above, with G241D counted along it
Chain of ERα in MCF7 cells (P03372 whole entry): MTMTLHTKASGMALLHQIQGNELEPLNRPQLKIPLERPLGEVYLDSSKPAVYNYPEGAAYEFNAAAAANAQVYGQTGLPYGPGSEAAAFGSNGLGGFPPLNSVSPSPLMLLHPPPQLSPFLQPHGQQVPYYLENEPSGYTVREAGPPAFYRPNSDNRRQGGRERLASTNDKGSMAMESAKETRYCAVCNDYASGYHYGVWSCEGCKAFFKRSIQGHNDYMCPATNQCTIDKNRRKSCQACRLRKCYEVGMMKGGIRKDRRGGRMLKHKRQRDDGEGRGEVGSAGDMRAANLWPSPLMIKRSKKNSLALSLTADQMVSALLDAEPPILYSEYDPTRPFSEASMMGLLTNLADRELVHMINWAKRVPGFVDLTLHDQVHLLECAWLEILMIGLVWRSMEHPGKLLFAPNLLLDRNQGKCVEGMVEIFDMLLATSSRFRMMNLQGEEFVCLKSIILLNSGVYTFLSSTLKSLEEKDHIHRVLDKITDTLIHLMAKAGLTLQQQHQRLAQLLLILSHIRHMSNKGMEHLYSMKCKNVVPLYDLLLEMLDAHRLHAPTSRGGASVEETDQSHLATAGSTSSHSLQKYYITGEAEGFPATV

As for `Oc1ccc2c(c1)SCC(c1ccc(F)cc1Cl)=C2c1ccc(O[C@H]2CCN(CCCF)C2)cc1` [Example 22, 3-(2-chloro-4-fluoro-phenyl)-4-[4-[(3S)-1-(3-fluoropropyl)pyrrolidin-3-yl]oxyphenyl]-2H-thiochromen-7-ol], the IC50 amounted to 6 nM in experiment [1], 27 nM in experiment [2] and 9 nM in experiment [3]. For the same compound, at ERα in MCF7 cells, the DC50 is 1 nM. For the same compound, the “% Degradation at 3 μM” value on ERα in MCF7 cells is recorded as 95%.
As to `Cc1c(F)cccc1C1=C(c2ccc(O[C@H]3CCN(CCCF)C3)cc2)c2ccc(O)cc2OCC1` [Example 126, 4-(3-fluoro-2-methyl-phenyl)-5-[4-[(3S)-1-(3-fluoropropyl)pyrrolidin-3-yl]oxyphenyl]-2,3-dihydro-1-benzoxepin-8-ol], the IC50 in experiment [1] is 5 nM; in experiment [2], 94 nM; in experiment [3] it was 55 nM. Moreover, the DC50 on ERα in MCF7 cells is 0.3 nM. Besides, the “% Degradation at 3 μM” value at ERα in MCF7 cells is 91%.
Regarding `Oc1ccc2c(c1)SCCC(c1ccc(Cl)cc1F)=C2c1ccc(O[C@H]2CCN(CCCF)C2)cc1` [Example 167, 4-(4-chloro-2-fluoro-phenyl)-5-[4-[(3S)-1-(3-fluoropropyl)pyrrolidin-3-yl]oxyphenyl]-2,3-dihydro-1-benzothiepin-8-ol], the IC50 is 5 nM in experiment [1], 26 nM in experiment [2] and 16 nM in experiment [3]. The DC50 at ERα in MCF7 cells turned out to be 0.5 nM. Also, the “% Degradation at 3 μM” value at ERα in MCF7 cells amounted to 87%.
In the same order, the values of `O=S1(=O)CCC(c2ccc(F)cc2Cl)=C(c2ccc(O[C@H]3CCN(CCCF)C3)cc2)c2ccc(O)cc21` [Example 229, 4-(2-chloro-4-fluoro-phenyl)-5-[4-[(3S)-1-(3-fluoropropyl)pyrrolidin-3-yl]oxyphenyl]-1,1-dioxo-2,3-dihydro-1λ^6-benzothiepin-8-ol] are 12 nM, 85 nM, 34 nM, 0.2 nM and 89%.
In the same order, the values of `Oc1ccc2c(c1)OCCC(c1cccc(F)c1Cl)=C2c1ccc(O[C@H]2CCN(CCCF)C2)cc1` [Example 95, 4-(2-chloro-3-fluoro-phenyl)-5-[4-[(3S)-1-(3-fluoropropyl)pyrrolidin-3-yl]oxyphenyl]-2,3-dihydro-1-benzoxepin-8-ol] are 6 nM, 43 nM, 20 nM, 0.2 nM and 93%.
For `Oc1ccc2c(c1F)OCCC(c1cccc3c1CCN3)=C2c1ccc(O[C@H]2CCN(CCCF)C2)cc1` [Example 134, 9-fluoro-5-[4-[(3S)-1-(3-fluoropropyl)pyrrolidin-3-yl]oxyphenyl]-4-indolin-4-yl-2,3-dihydro-1-benzoxepin-8-ol], the IC50 in experiment [1] worked out at 19 nM; in experiment [2] it was 328 nM; in experiment [3] it was 225 nM. In addition, at ERα in MCF7 cells, the DC50 turned out to be 3 nM. The “% Degradation at 3 μM” value at ERα in MCF7 cells is listed as 85%.
On the same counts, the results for `Cc1cc(C2=C(c3ccc(O[C@H]4CCN(CCCF)C4)cc3)c3cc(O)ccc3SCC2)ccc1Cl` [Example 179, 4-(4-chloro-3-methyl-phenyl)-5-[4-[(3S)-1-(3-fluoropropyl)pyrrolidin-3-yl]oxyphenyl]-2,3-dihydro-1-benzothiepin-7-ol] are 12 nM, 114 nM, 80 nM, 4 nM and 80%.
Regarding `Oc1ccc(C2=C(c3ccc(O[C@H]4CCN(CCCF)C4)cc3)c3cc(O)ccc3SCC2)cc1` [Example 177, 5-[4-[(3S)-1-(3-fluoropropyl)pyrrolidin-3-yl]oxyphenyl]-4-(4-hydroxyphenyl)-2,3-dihydro-1-benzothiepin-7-ol], the IC50 in experiment [1] amounted to 4 nM; in experiment [2] it was 41 nM; in experiment [3], 29 nM. Also, the DC50 at ERα in MCF7 cells was determined as 0.2 nM. On ERα in MCF7 cells, the “% Degradation at 3 μM” value is recorded as 75%.
